Laboratory results as given in patent US10471149B2 (Insmed Incorporated, priority 2012, dated 2019).
Where two headings read alike, the source gives them in different places.

How the values were obtained:
[1] = cited from earlier work
[2] = animal models of meningitis caused by pneumococci; cited from earlier work
[3] = Chemical stability of vancomycin in aqueous solution (CDP-I formation by HPLC): effect of pH, organic bases, ethanol, ammonium ions; settings: 4° C. (FIG. 7); high concentration and low pH
Protocol: Selected samples were also incubated at a lower concentration (20 mg/mL).
In buffered samples, an appropriate amount of buffer or amino acid additive was added. The pH values were chosen to cover the range between the lowest and highest acceptable values of pH, including pH 5.0 for lipid stability reasons and pH 6.5, above which degradation is expected to be impractically fast.
The concentration of 200 mg/mL was chosen to mimic what a high intra-liposomal might be but was no higher than this for practical handling purposes. All samples were liquid solutions upon preparation.
For comparison, lower concentration solutions (20 mg/mL) also were prepared by diluting 200 mg/mL samples 10-fold in water. Samples were incubated at 4° C. (in refrigerator) and at ambient temperature (about 23° C., which is referred herein to as “room temperature” or “RT”).

Compound	AUC ([1]; in vivo) [µg·h/mL]	Protein binding ([1]; in vivo) [%]	Vd ([1]; in vivo) [L/kg]	concentration in cerebrospinal fluid, % of the serum level [2] [%]	AUC [1] [µg·h/mL]	Protein binding [1]	Terminal half-life [1] [h]	Vd [1] [L/kg]	degradation rate [3]
CN[C@H]1C(=O)N[C@@H]2Cc3ccc(cc3)Oc3cc4cc(c3O[C@@H]3O[C@H](C(=O)O)[C@@H](O)[C@H](O)[C@H]3NC(=O)CCCCCCCCC(C)C)Oc3ccc(cc3Cl)[C@@H](O)[C@@H]3NC(=O)[C@H](NC(=O)[C@@H]4NC(=O)[C@@H](NC2=O)c2cc(cc(O)c2Cl)Oc2cc1ccc2O)c1ccc(O)c(c1)-c1c(O[C@H]2O[C@H](CO)[C@@H](O)[C@H](O)[C@@H]2O)cc(O)cc1[C@@H](C(=O)NCCCN(C)C)NC3=O [Dalbavanc in, Dalbavancin]	27103	98	0.11						
CN[C@H](CC(C)C)C(=O)N[C@H]1C(=O)N[C@@H](CC(N)=O)C(=O)N[C@H]2C(=O)N[C@H]3C(=O)N[C@H](C(=O)N[C@H](C(=O)O)c4cc(O)cc(O)c4-c4cc3ccc4O)[C@H](O[C@H]3C[C@](C)(N)[C@@H](O)[C@H](C)O3)c3ccc(c(Cl)c3)Oc3cc2cc(c3O[C@@H]2O[C@H](CO)[C@@H](O)[C@H](O)[C@H]2O[C@H]2C[C@](C)(NCc3ccc(-c4ccc(Cl)cc4)cc3)[C@@H](O)[C@H](C)O2)Oc2ccc(cc2Cl)[C@H]1O [Oritavancin]				5	152	90%	360		
CCCCCCCCCCNCCN[C@@]1(C)C[C@H](O[C@H]2[C@H](Oc3c4cc5cc3Oc3ccc(cc3Cl)[C@@H](O)[C@@H](NC(=O)[C@@H](CC(C)C)NC)C(=O)N[C@@H](CC(N)=O)C(=O)N[C@H]5C(=O)N[C@H]3C(=O)N[C@H](C(=O)N[C@H](C(=O)O)c5cc(O)c(CNCP(=O)(O)O)c(O)c5-c5cc3ccc5O)[C@H](O)c3ccc(c(Cl)c3)O4)O[C@H](CO)[C@@H](O)[C@@H]2O)O[C@@H](C)[C@H]1O [Telavancin]					600	90-93%	7		
CN[C@H](CC(C)C)C(=O)N[C@H]1C(=O)N[C@@H](CC(N)=O)C(=O)N[C@H]2C(=O)N[C@H]3C(=O)N[C@H](C(=O)N[C@H](C(=O)O)c4cc(O)cc(O)c4-c4cc3ccc4O)[C@H](O)c3ccc(c(Cl)c3)Oc3cc2cc(c3O[C@@H]2O[C@H](CO)[C@@H](O)[C@H](O)[C@H]2O[C@H]2C[C@](C)(N)[C@H](O)[C@H](C)O2)Oc2ccc(cc2Cl)[C@H]1O [Vancomycin]					260	10-55%	4 to 8	0.3	about 0.1 % per week
Teicoplanin					550	90%	83 to 168	0.9 to 1.6	
